Source: ChEMBL document CHEMBL4393715, “Design, synthesis and biological evaluation of the thioether-containing lenalidomide analogs with anti-proliferative activities” (Eur J Med Chem, 2019)

Tests used:
[1] = Antiproliferative activity against human Mino cells measured after 72 hrs by CellTiter96 Aqueous non-radioactive cell proliferation assay; type: functional, cell-based
[2] = test system: MV4-11; assay: Antiproliferative activity against human MV411 cells measured after 168 hrs by CellTiter96 Aqueous non-radioactive cell proliferation assay; type: functional, cell-based; conditions: MV4-11, 168 h
[3] = test system: MM1.S; assay: Antiproliferative activity against human MM1S cells measured after 168 hrs by CellTiter96 Aqueous non-radioactive cell proliferation assay; type: functional, cell-based
[4] = test system: THP-1; assay: Antiproliferative activity against human THP1 cells measured after 168 hrs by CellTiter96 Aqueous non-radioactive cell proliferation assay; type: functional, cell-based; conditions: THP-1, 168 h
[5] = test system: U-266; assay: Antiproliferative activity against human U266 cells measured after 72 hrs by CellTiter96 Aqueous non-radioactive cell proliferation assay; type: functional, cell-based; conditions: U-266, 72 h
[6] = test system: Kasumi 1; assay: Antiproliferative activity against human Kasumi-1 cells measured after 168 hrs by CellTiter96 Aqueous non-radioactive cell proliferation assay; type: functional, cell-based; conditions: Kasumi 1, 168 h
[7] = test system: JeKo-1; assay: Antiproliferative activity against human JeKo1 cells measured after 72 hrs by CellTiter96 Aqueous non-radioactive cell proliferation assay; type: functional, cell-based; conditions: JeKo-1, 72 h
[8] = test system: Raji; assay: Antiproliferative activity against human Raji cells measured after 168 hrs by CellTiter96 Aqueous non-radioactive cell proliferation assay; type: functional, cell-based
[9] = test system: PBMC; assay: Cytotoxicity against human PBMC cells by CellTiter96 Aqueous non-radioactive cell proliferation assay; type: cell-based
[10] = test system: Z-138; assay: Antiproliferative activity against human Z138 cells measured after 72 hrs by CellTiter96 Aqueous non-radioactive cell proliferation assay; type: functional, cell-based; conditions: Z-138, 72 h
[11] = test system: RPMI-8226; assay: Antiproliferative activity against human RPMI8226 cells measured after 72 hrs by CellTiter96 Aqueous non-radioactive cell proliferation assay; type: functional, cell-based; conditions: RPMI-8226, 72 h
[12] = AUC (infinity) in BALB/c mouse at 20 mg/kg, po and measured up to 24 hrs by LC-MS/MS analysis; type: ADME, organism-based; parameters: dose 20 mg/kg, route oral, time infinity; conditions: in vivo
[13] = Oral bioavailability in BALB/c mouse at 20 mg/kg and measured up to 24 hrs by LC-MS/MS analysis; type: ADME, organism-based; conditions: in vivo
[14] = AUC (infinity) in BALB/c mouse at 5 mg/kg, iv and measured up to 24 hrs by LC-MS/MS analysis; type: ADME, organism-based; parameters: dose 5 mg/kg, route intravenous, time infinity; conditions: in vivo
[15] = Cmax in BALB/c mouse at 20 mg/kg, po and measured up to 24 hrs by LC-MS/MS analysis; type: ADME, organism-based; parameters: dose 20 mg/kg, route oral; conditions: in vivo
[16] = Clearance in BALB/c mouse at 5 mg/kg, iv and measured up to 24 hrs by LC-MS/MS analysis; type: ADME, organism-based; conditions: in vivo
[17] = Tmax in BALB/c mouse at 20 mg/kg, po and measured up to 24 hrs by LC-MS/MS analysis; type: ADME, organism-based; conditions: in vivo
[18] = Half-life in BALB/c mouse at 5 mg/kg, iv and measured up to 24 hrs by LC-MS/MS analysis; type: ADME, organism-based; conditions: in vivo
[19] = Volume of distribution at steady state in BALB/c mouse at 5 mg/kg, iv and measured up to 24 hrs by LC-MS/MS analysis; type: ADME, organism-based; conditions: in vivo, read-out: Vdss
[20] = MRT (infinity) in BALB/c mouse at 5 mg/kg, iv and measured up to 24 hrs by LC-MS/MS analysis; type: ADME, organism-based; conditions: in vivo
[21] = Terminal elimination half life in BALB/c mouse at 20 mg/kg, po and measured up to 24 hrs by LC-MS/MS analysis; type: ADME, organism-based; conditions: in vivo, read-out: LambdaZ (converted)
[22] = Toxicity in CB-17 SCID mouse xenografted with human RPMI8226 cells assessed as body weight at 60 mg/kg/day, po and measured after day 18 (reference value: 20.1 to 20.4 g); type: organism-based; conditions: in vivo
[23] = Toxicity in CB-17 SCID mouse xenografted with human RPMI8226 cells assessed as mortality at 60 mg/kg/day, po and measured after day 18; type: organism-based; conditions: in vivo
[24] = test system: RPMI-8226; assay: Antitumour activity against human RPMI8226 cells xenografted in CB-17 SCID mouse assessed as tumour volume at 60 mg/kg/day, po measured after day 18 (reference value: 153 to 154 mm3); type: functional
[25] = test system: RPMI-8226; assay: Antitumour activity against human RPMI8226 cells xenografted in CB-17 SCID mouse assessed as inhibition of tumour growth at 60 mg/kg/day, po measured twice a week for 21 days relative to control; type: functional; parameters: scale not given: the % may be the effect or the level left
[26] = test system: RPMI-8226; assay: Antitumour activity against human RPMI8226 cells xenografted in CB-17 SCID mouse assessed as relative tumour volume at 60 mg/kg/day, po measured twice a week for 21 days; type: functional
[27] = Toxicity in CB-17 SCID mouse xenografted with human RPMI8226 cells assessed as increase in body weight at 60 mg/kg/day, po and measured after day 18 (reference value: 13.4%); type: organism-based; conditions: in vivo

## CC1CN(C(=O)c2ccc(CSc3cccc4c3CN(C3CCC(=O)NC3=O)C4=O)cc2)CC(C)O1 (configuration not stated)
[1]
  IC50: 6.5 nM

## O=C1CCC(N2Cc3c(SCc4cccc(F)c4)cccc3C2=O)C(=O)N1 (configuration not stated)
[1]
  IC50: 4.3 nM
[2]
  IC50: > 20000 nM
[3]
  IC50: 0.9 nM

## Nc1cccc2c1CN(C1CCC(=O)NC1=O)C2=O (configuration not stated) [LENALIDOMIDE]
[4]
  IC50: > 20000 nM
[5]
  IC50: > 20000 nM
[6]
  IC50: > 20000 nM
[7]
  IC50: > 20000 nM
[8]
  IC50: > 20000 nM
[9]
  IC50: > 20000 nM
[1]
  IC50: > 20000 nM
[2]
  IC50: > 20000 nM
[10]
  IC50: > 20000 nM
[11]
  IC50: > 20000 nM
[3]
  IC50: 50 nM

## O=C1CCC(N2Cc3c(SCc4ccc(CN5CCOCC5)cc4)cccc3C2=O)C(=O)N1 (configuration not stated)
[12]
  AUC(0-inf): 288 ng·h/mL
[13]
  bioavailability: 17.6%
[14]
  AUC(0-inf): 397 ng·h/mL
[15]
  Cmax: 496 ng/mL
[16]
  clearance: 210 mL/min/kg
[17]
  Tmax: 8.4 min
[18]
  half-life: 52.8 min
[19]
  Vd: 4.69 L/kg
[1]
  IC50: 3.3 nM
[20]
  MRT inf: 22.2 min
[21]
  half-life: 85.8 min

## N#Cc1ccccc1CSc1cccc2c1CN(C1CCC(=O)NC1=O)C2=O (configuration not stated)
[1]
  IC50: 30.5 nM
[2]
  IC50: > 20000 nM
[3]
  IC50: 2.9 nM

## N#Cc1ccc(CSc2cccc3c2CN(C2CCC(=O)NC2=O)C3=O)cc1 (configuration not stated)
[4]
  IC50: > 20000 nM
[5]
  IC50: > 20000 nM
[6]
  IC50: > 20000 nM
[7]
  IC50: > 20000 nM
[8]
  IC50: > 20000 nM
[9]
  IC50: > 20000 nM
[1]
  IC50: 3.7 nM
[2]
  IC50: > 20000 nM
[10]
  IC50: > 20000 nM
[11]
  IC50: 200 nM
[3]
  IC50: 1.3 nM

## O=C1CCC(N2Cc3c(SCc4ccccc4F)cccc3C2=O)C(=O)N1 (configuration not stated)
[1]
  IC50: 2.9 nM
[2]
  IC50: > 20000 nM
[3]
  IC50: 0.6 nM

## O=C1CCC(N2Cc3c(SCc4cccc(Cl)c4)cccc3C2=O)C(=O)N1 (configuration not stated)
[1]
  IC50: 2.4 nM
[2]
  IC50: > 20000 nM
[3]
  IC50: 1.1 nM

## NC(=O)c1ccc(CSc2cccc3c2CN(C2CCC(=O)NC2=O)C3=O)cc1 (configuration not stated)
[1]
  IC50: 35.4 nM

## O=C1CCC(N2Cc3c(cccc3S(=O)(=O)Cc3ccc(CN4CCOCC4)cc3)C2=O)C(=O)N1 (configuration not stated)
[1]
  IC50: > 20000 nM

## O=C1CCC(N2Cc3c(SCc4ccccc4)cccc3C2=O)C(=O)N1 (configuration not stated)
[1]
  IC50: 6.3 nM
[2]
  IC50: > 20000 nM
[3]
  IC50: 1.1 nM

## CC(C)(C)OC(=O)c1ccc(CSc2cccc3c2CN(C2CCC(=O)NC2=O)C3=O)cc1 (configuration not stated)
[1]
  IC50: 1.1 nM

## O=C1CCC(N2Cc3c(SCc4ccc(Cl)cc4)cccc3C2=O)C(=O)N1 (configuration not stated)
[12]
  AUC(0-inf): 755 ng·h/mL
[4]
  IC50: > 20000 nM
[22]
  Activity: 22.4 g
[5]
  IC50: > 20000 nM
[13]
  bioavailability: 39.2%
[14]
  AUC(0-inf): 428 ng·h/mL
[6]
  IC50: > 20000 nM
[15]
  Cmax: 283 ng/mL
[7]
  IC50: > 20000 nM
[8]
  IC50: > 20000 nM
[9]
  IC50: > 20000 nM
[16]
  clearance: 196 mL/min/kg
[17]
  Tmax: 49.8 min
[18]
  half-life: 113 min
[23]
  Activity: Non-Toxic
[24]
  Activity: 1022 mm3
[19]
  Vd: 11.1 L/kg
[1]
  IC50: 2.3 nM
[25]
  Activity: 52.31%
[20]
  MRT inf: 56.4 min
[26]
  fold change (FC): 6.62
[2]
  IC50: > 20000 nM
[10]
  IC50: > 20000 nM
[11]
  IC50: 5.5 nM
[27]
  Activity: 9.8%
[3]
  IC50: 1.1 nM
[21]
  half-life: 107 min

## CNC(=O)c1ccc(CSc2cccc3c2CN(C2CCC(=O)NC2=O)C3=O)cc1 (configuration not stated)
[1]
  IC50: 28.3 nM

## Cc1ccc(NC(=O)NCc2ccc3c(c2)CN(C2CCC(=O)NC2=O)C3=O)cc1Cl (configuration not stated)
[4]
  IC50: 1.5 nM
[5]
  IC50: 2 nM
[6]
  IC50: 0.8 nM
[7]
  IC50: 1.2 nM
[8]
  IC50: 20.4 nM
[9]
  IC50: 0.3 nM
[1]
  IC50: 0.4 nM
[2]
  IC50: 0.2 nM
[10]
  IC50: 0.4 nM
[11]
  IC50: 5.5 nM
[3]
  IC50: 0.3 nM

## O=C1CCC(N2Cc3c(SCc4ccccc4Cl)cccc3C2=O)C(=O)N1 (configuration not stated)
[1]
  IC50: 11.6 nM
[2]
  IC50: > 20000 nM
[3]
  IC50: 1.1 nM

## N#Cc1cccc(CSc2cccc3c2CN(C2CCC(=O)NC2=O)C3=O)c1 (configuration not stated)
[1]
  IC50: 8 nM
[2]
  IC50: > 20000 nM
[3]
  IC50: 1.4 nM
